Reference: DBAASP
In brackets after ≈: the same amount, converted by molar mass.

Experiments:
Experiment in all cases: ≥ marks a high value that may be exact or a test limit, other limits are often not marked, values filed in µg/mL are converted to µM
[1] = system: Staphylococcus aureus ATCC 29213
[2] = system: Escherichia coli ATCC 25922
[3] = system: Bacillus subtilis ATCC 6633
[4] = system: Proteus mirabilis CCUG 26767
[5] = system: Enterococcus faecium ATCC 19434
[6] = system: Enterococcus faecalis ATCC 19433
[7] = system: Salmonella enterica subsp. enterica serovar Typhimurium LT2
[8] = system: Klebsiella pneumoniae ATCC 13883
[9] = system: Pseudomonas aeruginosa ATCC 27853
[10] = system: Enterococcus faecalis CECT 481
[11] = system: Streptococcus agalactiae CECT 183T
[12] = system: Staphylococcus aureus MR
[13] = system: Candida glabrata ATCC 90030
[14] = system: Staphylococcus aureus CECT 435
[15] = system: Candida krusei ATCC 6258
[16] = system: Escherichia coli CECT 434
[17] = system: Micrococcus luteus NCIMB 13267
[18] = system: Escherichia coli K-12
[19] = system: Staphylococcus aureus ATCC 6538
[20] = system: Streptococcus agalactiae ATCC 27956
[21] = system: Bacillus cereus ATCC 10876
[22] = system: Salmonella enterica subsp. enterica serovar Typhimurium ATCC 14028
[23] = system: Streptococcus equi subsp. zooepidemicus ATCC 43079
[24] = system: Enterococcus faecalis ATCC 29212
[25] = system: Streptococcus dysgalactiae subsp. dysgalactiae ATCC 27957
[26] = system: Acinetobacter baumannii ATCC 19606
[27] = system: Klebsiella pneumoniae ATCC 700603
[28] = system: Acinetobacter baumannii CR17
[29] = system: Enterococcus faecium ATCC 700221
[30] = system: Acinetobacter baumannii ATCC BAA-1605
[31] = system: Staphylococcus aureus ATCC 33591
[32] = system: Pseudomonas aeruginosa PA214
[33] = system: Pseudomonas aeruginosa PAO1
[34] = system: Candida albicans ATCC 90028
[35] = system: Staphylococcus aureus ATCC 9144
[36] = system: Staphylococcus aureus USA 300
[37] = system: Escherichia coli NCTC 12923
[38] = system: Acinetobacter baumannii ATCC 17978
[39] = system: Candida krusei NCPF 3876
[40] = system: Klebsiella pneumoniae NCTC 13368

SMILES: CC[C@H](C)[C@H](NC(=O)[C@H](CC(C)C)NC(=O)[C@@H]1CCCN1C(=O)[C@H](CC(C)C)NC(=O)[C@@H](N)Cc1ccccc1)C(=O)N[C@@H](CC(C)C)C(=O)N[C@@H](Cc1ccccc1)C(=O)N[C@@H](Cc1c[nH]c2ccccc12)C(=O)N[C@H](C(=O)N[C@H](C(=O)N[C@H](C(=O)N[C@@H](C)C(=O)N[C@@H](CC(C)C)C(N)=O)[C@@H](C)O)C(C)C)[C@@H](C)CC [FLPLILFWIVTAL]
- MIC [1]: > 388 µM
- MIC [2]: > 388 µM
- MIC [3]: ≥ 388 µM
- MIC [4]: ≥ 388 µM
- MIC [5]: ≥ 388 µM
- MIC [6]: ≥ 388 µM
- MIC [7]: ≥ 388 µM
- MIC [8]: ≥ 388 µM
- MIC [9]: > 388 µM

SMILES: CC[C@H](C)[C@H](NC(=O)CNC(=O)[C@H](CCC(N)=O)NC(=O)[C@@H](NC(=O)[C@@H]1CCCN1C(=O)CNC(=O)[C@H](CC(=O)O)NC(=O)CNC(=O)[C@H](CCCCN)NC(=O)[C@H](CC(C)C)NC(=O)[C@@H](NC(=O)[C@H](CS)NC(=O)[C@@H](NC(=O)[C@H](C)NC(=O)[C@H](CCCCN)NC(=O)[C@@H](NC(=O)[C@H](C)N)[C@@H](C)O)C(C)C)C(C)C)C(C)C)C(=O)N[C@H](C(=O)N[C@@H](CC(N)=O)C(=O)N[C@@H](Cc1ccccc1)C(=O)O)[C@@H](C)CC [ATKAVCVLKGDGPVQGIINF]
- MIC [10]: 7.88 µM (≈ 16 µg/mL)
- MIC [11]: 7.88 µM (≈ 16 µg/mL)
- MIC [12]: 7.88 µM (≈ 16 µg/mL)
- MIC [13]: ≥ 126 µM
- MIC [14]: 7.88 µM (≈ 16 µg/mL)
- MIC [15]: 3.94 µM (≈ 8 µg/mL)
- MIC [16]: 31.5 µM (≈ 64 µg/mL)

SMILES: CC(C)C[C@H](NC(=O)[C@H](CO)NC(=O)[C@H](CCC(=O)O)NC(=O)[C@H](CC(C)C)NC(=O)[C@H](CCC(N)=O)NC(=O)[C@H](CCC(N)=O)NC(=O)[C@H](CCC(=O)O)NC(=O)[C@H](CC(C)C)NC(=O)[C@H](CCC(N)=O)NC(=O)[C@H](CO)NC(=O)[C@H](CC(C)C)NC(=O)[C@H](CCC(=O)O)NC(=O)[C@H](CCC(N)=O)NC(=O)[C@H](CCC(=O)O)NC(=O)[C@H](CC(C)C)NC(=O)[C@H](CO)NC(=O)[C@H](CCC(N)=O)NC(=O)[C@H](C)NC(=O)[C@H](CCC(=O)O)NC(=O)[C@H](CCC(N)=O)NC(=O)[C@H](CCC(=O)O)NC(=O)[C@H](Cc1ccccc1)NC(=O)[C@H](CCC(N)=O)NC(=O)[C@H](C)NC(=O)[C@H](Cc1ccccc1)NC(=O)[C@H](CCC(=O)O)NC(=O)CN)C(=O)O [GEFAQFEQEAQSLEQELSQLEQQLESL]
- MIC [17]: ≥ 200 µM
- MIC [3]: ≥ 200 µM
- MIC [18]: ≥ 200 µM
- MIC [19]: > 200 µM
- MIC [9]: > 200 µM

SMILES: CC[C@H](C)[C@H](NC(=O)[C@H](CC(C)C)NC(=O)[C@H](CC(N)=O)NC(=O)CNC(=O)[C@H](Cc1ccccc1)NC(=O)[C@@H](NC(=O)[C@H](CCCN=C(N)N)NC(=O)[C@@H](NC(=O)[C@H](CC(C)C)NC(=O)[C@H](CCC(N)=O)NC(=O)[C@H](Cc1ccc(O)cc1)NC(=O)[C@@H](N)Cc1c[nH]c2ccccc12)[C@@H](C)CC)[C@@H](C)O)C(=O)N[C@@H](Cc1cnc[nH]1)C(=O)N[C@@H](CCC(N)=O)C(=O)N[C@@H](CCCCN)C(=O)N[C@@H](Cc1ccc(O)cc1)C(=O)N[C@@H](CCCN=C(N)N)C(=O)N[C@@H](CCCCN)C(=O)N[C@@H](CC(C)C)C(=O)N[C@@H](CC(C)C)C(=O)N[C@@H](CCC(=O)O)C(=O)N[C@@H](C)C(=O)N[C@@H](Cc1ccc(O)cc1)C(=O)N[C@@H](CCCN=C(N)N)C(=O)N[C@@H](CCCCN)C(=O)N[C@@H](CC(C)C)C(=O)N[C@@H](CCCN=C(N)N)C(=O)N[C@@H](CC(=O)O)C(=O)O [WYQLIRTFGNLIHQKYRKLLEAYRKLRD]
- MIC [20]: 11 µM (≈ 39.9 µg/mL)
- MIC [21]: 1.66 µM (≈ 6 µg/mL)
- MIC [22]: > 8.83 µM
- MIC [23]: 11 µM (≈ 39.9 µg/mL)
- MIC [24]: 0.552 µM (≈ 2 µg/mL)
- MIC [19]: 0.414 µM (≈ 1.5 µg/mL)
- MIC [25]: 11 µM (≈ 39.9 µg/mL)
- MIC [9]: > 8.83 µM

SMILES: CC[C@H](C)[C@H](NC(=O)[C@H](CCCCN)NC(=O)[C@H](CCCN=C(N)N)NC(=O)[C@H](Cc1ccccc1)NC(=O)[C@H](CC(C)C)NC(=O)[C@H](CCCN=C(N)N)NC(=O)[C@@H](N)CCCCN)C(=O)N[C@@H](CC(C)C)C(=O)N[C@@H](CCCCN)C(=O)N[C@@H](Cc1ccc(O)cc1)C(=O)N[C@@H](CC(C)C)C(N)=O [KRLFRKILKYL]
- MIC [26]: 3.04 µM (≈ 4.5 µg/mL)
- MIC [2]: 11.5 µM (≈ 17 µg/mL)
- MIC [27]: 5.75 µM (≈ 8.49 µg/mL)
- MIC [28]: 16.1 µM (≈ 23.8 µg/mL)
- MIC [29]: 5.75 µM (≈ 8.49 µg/mL)
- MIC [30]: 3.04 µM (≈ 4.5 µg/mL)
- MIC [31]: 5.75 µM (≈ 8.49 µg/mL)
- MIC [9]: 11.5 µM (≈ 17 µg/mL)

SMILES: CC(C)C[C@H](NC(=O)[C@H](Cc1ccccc1)NC(=O)[C@H](C)NC(=O)[C@H](C)NC(=O)[C@H](CCCCN)NC(=O)[C@H](CCCCN)NC(=O)[C@H](CCCCN)NC(=O)[C@@H](N)CCCCN)C(=O)N[C@@H](CCCCN)C(=O)N[C@@H](CC(C)C)C(=O)N[C@@H](Cc1c[nH]c2ccccc12)C(=O)N[C@@H](CC(C)C)C(=O)N[C@@H](CCCCN)C(=O)N[C@@H](CC(C)C)C(=O)N[C@@H](Cc1ccccc1)C(=O)N[C@@H](C)C(=O)N[C@@H](C)C(N)=O [KKKKAAFLKLWLKLFAA]
- MIC [32]: ≥ 50 µM
- MIC [33]: > 50 µM
- MIC [18]: 12.5 µM (≈ 25 µg/mL)

SMILES: CC[C@H](C)[C@H](N)C(=O)N[C@@H](CCCN=C(N)N)C(=O)NCC(=O)N[C@@H](Cc1ccc(O)cc1)C(=O)N[C@@H](CCCCN)C(=O)NCC(=O)NCC(=O)N[C@@H](Cc1ccc(O)cc1)C(=O)N[C@@H](CS)C(=O)N[C@@H](CCCCN)C(N)=O [IRGYKGGYCK]
- MIC [34]: 15.4 µM (≈ 17.6 µg/mL)
- MIC [33]: > 112 µM
- MIC [35]: ≥ 112 µM
- MIC [36]: ≥ 112 µM
- MIC [37]: ≥ 112 µM
- MIC [38]: ≥ 112 µM
- MIC [39]: ≥ 112 µM
- MIC [40]: ≥ 112 µM
